From ChEMBL document CHEMBL1122453, “Structure-activity relationships in the antiinflammatory steroids: a pattern-recognition approach” (1983)

Legend:
[1] = organism: Rattus norvegicus; experiment: Anti-inflammatory effect in rat granuloma assay, activity relative to hydrocortisone and hydrocortisone 21-acetate; format: functional
[2] = organism: Homo sapiens; experiment: Potency relative to fluocinolone 16,17-acetonide in the human vasoconstictor test; format: functional

SMILES | Potency [1] | Potency [2]
CC(=O)OCC(=O)[C@@]1(O)CCC2C3C[C@H](Cl)C4=CC(=O)CCC4(C)C3C(O)CC21C (some centres not stated) | 11 | 
C[C@]12C=CC(=O)C=C1CC[C@@H]1[C@@H]2[C@@H](O)C[C@@]2(C)[C@H]1CC[C@]2(O)C(=O)CO [PREDNISOLONE] | 3 | 0.1
CC(=O)OCC(=O)[C@@]1(O)CC[C@H]2[C@@H]3CCC4=CC(=O)CC[C@]4(C)[C@H]3[C@@H](O)C[C@@]21C [HYDROCORTISONE ACETATE] | 1 | 1
CC(=O)OCC(=O)C1CCC2C3CCC4=CC(=O)[C@H](C)CC4(C)C3C(O)=CC12C (some centres not stated) | <0.01 | 
C[C@@H]1CC2C3CCC4=CC(=O)CCC4(C)C3C(O)CC2(C)[C@@]1(O)C(=O)CO (some centres not stated) | 1.4 | 
CC(=O)OCC(=O)[C@@]1(O)CCC2C3C[C@H](F)C4=CC(=O)C=CC4(C)[C@@]3(F)C(O)CC21C (some centres not stated) | 200 | 
CC(=O)OCC(=O)[C@@]1(O)CC[C@H]2[C@@H]3CCC4=CC(=O)CC[C@]4(C)[C@H]3C(=O)C[C@@]21C [CORTISONE ACETATE] | 0.3 | 
CC(=O)OCC(=O)[C@@]1(O)CC[C@H]2[C@@H]3CCC4=CC(=O)C=C[C@]4(C)[C@H]3[C@@H](O)C[C@@]21C [PREDNISOLONE ACETATE] | 3 | 1
CC(=O)OCC(=O)[C@@]1(O)[C@H](C)CC2C3C[C@H](F)C4=CC(=O)C=CC4(C)[C@@]3(F)C(O)CC21C (some centres not stated) | 120 | 
CC(=O)OCC(=O)[C@@]1(O)CCC2C3CCC4=CC(=O)[C@H](C)CC4(C)C3C(O)CC21C (some centres not stated) | 4.5 | 
CC(=O)OCC(=O)[C@@]1(O)CCC2C3C[C@H](Cl)C4=CC(=O)CCC4(C)[C@@]3(F)C(=O)CC21C (some centres not stated) | 8 | 
CC(=O)OCC(=O)[C@@]12OC(C)(C)O[C@@H]1CC1C3C[C@H](F)C4=CC(=O)C=CC4(C)C3C(O)CC12C (some centres not stated) | 20 | 
CC(=O)OCC(=O)[C@@]1(O)CC[C@H]2[C@@H]3CCC4=CC(=O)C=C[C@]4(C)[C@H]3C(=O)C[C@@]21C | 1 | 
CC(=O)OCC(=O)[C@@]1(O)CCC2C3C[C@H](F)C4=CC(=O)C=CC4(C)C3C(O)CC21C (some centres not stated) | 20 | 
CC12C=CC(=O)C=C1CCC1C3CC[C@](O)(C(=O)CO)C3(C)CC(O)[C@@]12F (some centres not stated) | 17.7 | 
C[C@@H]1C[C@H]2[C@@H]3CCC4=CC(=O)C=C[C@]4(C)[C@H]3[C@@H](O)C[C@]2(C)[C@@]1(O)C(=O)CO | 11.3 | 
C[C@@H]1CC2C3CCC4=CC(=O)CCC4(C)[C@@]3(F)C(O)CC2(C)[C@@]1(O)C(=O)CO (some centres not stated) | 36 | 
CC(=O)OCC(=O)[C@@]12OC(C)(C)O[C@@H]1CC1C3C[C@H](F)C4=CC(=O)CCC4(C)C3C(O)CC12C (some centres not stated) | 4 | 
C[C@@H]1C[C@H]2[C@@H]3CCC4=CC(=O)C=C[C@]4(C)[C@@]3(F)[C@@H](O)C[C@]2(C)[C@@]1(O)C(=O)CO [DEXAMETHASONE] | 200 | 1
C[C@H]1C[C@H]2[C@@H]3CCC4=CC(=O)C=C[C@]4(C)[C@H]3[C@@H](O)C[C@]2(C)[C@@]1(O)C(=O)CO | 23 | 
CC(=O)OCC(=O)[C@@]1(O)[C@H](C)CC2C3C[C@H](F)C4=CC(=O)CCC4(C)[C@@]3(F)C(O)CC21C (some centres not stated) | 50 | 
CC(=O)OCC(=O)C1CCC2C3CCC4=CC(=O)CCC4(C)C3C(O)CC12C (configuration not stated) | 0.3 | 
CC(=O)OCC(=O)[C@@]1(O)CCC2C3C[C@H](Cl)C4=CC(=O)C=CC4(C)[C@@]3(F)C(O)CC21C (some centres not stated) | 27 | 

SMILES | Potency [1] | Potency [2]
CC(=O)OCC(=O)[C@@]1(O)CCC2C3C[C@H](F)C4=CC(=O)C=CC4(C)C3C(=O)CC21C (some centres not stated) | 20 | 
CC(=O)OCC(=O)[C@@]1(O)CCC2C3CCC4=CC(=O)[C@H](C)CC4(C)[C@@]3(F)C(O)CC21C (some centres not stated) | 9 | 
C[C@@H]1CC2C3CCC4=CC(=O)C=CC4(C)[C@@]3(F)C(O)=CC2(C)[C@@]1(O)C(=O)CO (some centres not stated) | 140 | 
C[C@]12CCC(=O)C=C1CC[C@@H]1[C@@H]2[C@@H](O)C[C@@]2(C)[C@H]1CC[C@]2(O)C(=O)CO [HYDROCORTISONE] | 1 | <1
C[C@@H]1CC2(C)C(=CC1=O)CCC1C2C(=O)CC2(C)C1CC[C@]2(O)C(=O)CO (some centres not stated) | <0.07 | 
CC(=O)OCC(=O)[C@@]1(O)CCC2C3C[C@H](Cl)C4=CC(=O)C=CC4(C)C3C(=O)CC21C (some centres not stated) | 4 | 
CC12C=CC(=O)C=C1[C@@H](Cl)CC1C2C(O)CC2(C)C1CC[C@]2(O)C(=O)CO (some centres not stated) | 14 | 
C[C@@H]1CC2C3CCC4=CC(=O)C=CC4(C)C3C(=O)CC2(C)[C@@]1(O)C(=O)CO (some centres not stated) | 13 | 
C[C@H]1CC2C3CCC4=CC(=O)C=CC4(C)C3C(=O)CC2(C)[C@@]1(O)C(=O)CO (some centres not stated) | 26 | 
CC(=O)OCC(=O)[C@@]1(O)CCC2C3CCC4=CC(=O)C=CC4(C)[C@@]3(Cl)[C@@H](Cl)CC21C (some centres not stated) | 0.5 | 
CC12CCC(=O)C=C1[C@@H](Cl)CC1C3CC(O)[C@](O)(C(=O)CO)C3(C)CC(O)[C@@]12F (some centres not stated) | 50 | 
CC1(C)O[C@@H]2C[C@H]3[C@@H]4CCC5=CC(=O)C=C[C@]5(C)[C@@]4(F)[C@@H](O)C[C@]3(C)[C@]2(C(=O)CO)O1 [TRIAMCINOLONE ACETONIDE] | 49 | 100
CC(=O)OCC(=O)C1CCC2C3CCC4=CC(=O)[C@H](C)CC4(C)C3C(O)CC12C (some centres not stated) | 0.3 | 
C[C@@H]1CC2C3CCC4=CC(=O)C=CC4(C)C3[C@@H](O)CC2(C)C1C(=O)CO (some centres not stated) | 3 | 
CC(=O)OCC(=O)C1CCC2C3CCC4=CC(=O)CCC4(C)C3C(O)=CC12C (configuration not stated) | 0.2 | 
C[C@]12C[C@H](O)[C@H]3[C@@H](CCC4=CC(=O)CC[C@@]43C)[C@@H]1CC[C@@H]2C(=O)CO [CORTICOSTERONE] | 0.3 | 0.3
CC(=O)OCC(=O)[C@@]1(O)CCC2C3C[C@H](F)C4=CC(=O)CCC4(C)C3C(=O)CC21C (some centres not stated) | 10 | 
CC12C=CC(=O)C=C1[C@@H](Cl)CC1C3CC(O)[C@](O)(C(=O)CO)C3(C)CC(O)[C@@]12F (some centres not stated) | 400 | 
CCCC(=O)O[C@]1(C(=O)CO)CC[C@H]2[C@@H]3CCC4=CC(=O)CC[C@]4(C)[C@H]3[C@@H](O)C[C@@]21C [HYDROCORTISONE BUTYRATE] | 1 | 50
CC12CCC(=O)C=C1[C@@H](F)CC1C2C(O)CC2(C)C1C[C@@H](O)[C@]2(O)C(=O)CO (some centres not stated) | 5 | 
CC(=O)OCC(=O)[C@@]1(O)CCC2C3C[C@H](F)C4=CC(=O)CCC4(C)C3C(O)CC21C (some centres not stated) | 10 | 
CC1(C)O[C@@H]2CC3C4C[C@H](F)C5=CC(=O)CCC5(C)[C@@]4(F)C(O)CC3(C)[C@]2(C(=O)CO)O1 (some centres not stated) | 103 | 
CC(=O)OCC(=O)[C@@]1(O)CCC2C3CCC4=CC(=O)C=CC4(C)[C@@]3(F)C(O)CC21C (some centres not stated) | 14 | 

SMILES | Potency [1] | Potency [2]
CC(=O)OCC(=O)[C@@]1(O)CC[C@H]2[C@@H]3CCC4=CC(=O)CC[C@]4(C)[C@@]3(F)[C@@H](O)C[C@@]21C [FLUDROCORTISONE ACETATE] | 7.3 | 1
C[C@H]1C[C@H]2[C@@H]3CCC4=CC(=O)C=C[C@]4(C)[C@@]3(F)[C@@H](O)C[C@]2(C)[C@@]1(O)C(=O)CO [BETAMETHASONE] | 35.8 | 0.8
C[C@H]1CC2C3CCC4=CC(=O)CCC4(C)C3C(=O)CC2(C)[C@@]1(O)C(=O)CO (some centres not stated) | 2 | 
CC(=O)OCC(=O)[C@@]1(O)[C@H](C)CC2C3C[C@H](F)C4=CC(=O)CCC4(C)C3C(O)CC21C (some centres not stated) | 5 | 
C[C@@H]1CC2C3C[C@H](C)C4=CC(=O)C=CC4(C)[C@@]3(F)C(O)CC2(C)[C@@]1(O)C(=O)CO (some centres not stated) | 200 | 
CC(=O)OCC(=O)[C@@]1(O)CCC2C3C[C@H](Cl)C4=CC(=O)CCC4(C)[C@@]3(F)C(O)CC21C (some centres not stated) | 11 | 
CC(=O)OCC(=O)[C@@]1(O)CCC2C3CCC4=CC(=O)CCC4(C)[C@@]3(F)C(=O)CC21C (some centres not stated) | 10 | 
CC(=O)OCC(=O)C1CCC2C3CCC4=CC(=O)CCC4(C)[C@@]3(F)C(O)CC12C (some centres not stated) | 2.7 | 
CC(=O)OCC(=O)[C@@]1(O)CCC2C3C[C@H](F)C4=CC(=O)CCC4(C)[C@@]3(F)C(O)CC21C (some centres not stated) | 50 | 
CC(=O)OCC(=O)[C@@]1(O)CCC2C3CCC4=CC(=O)CCC4(C)[C@@]3(Cl)C(O)CC21C (some centres not stated) | 3.5 | 
CC12CCC(=O)C=C1[C@@H](F)CC1C3C[C@@H](O)[C@](O)(C(=O)CO)C3(C)CC(O)[C@@]12F (some centres not stated) | 15 | 
C[C@H]1CC2C3CCC4=CC(=O)CCC4(C)[C@@]3(F)C(O)CC2(C)[C@@]1(O)C(=O)CO (some centres not stated) | 23 | 
C[C@@H]1CC2C3CCC4=CC(=O)C=CC4(C)[C@@]3(Cl)C(O)CC2(C)[C@@]1(O)C(=O)CO (some centres not stated) | 60 | 
C[C@H]1CC2C3CCC4=CC(=O)CCC4(C)C3C(O)CC2(C)[C@@]1(O)C(=O)CO (some centres not stated) | 4 | 
CC(=O)OCC(=O)C1CCC2C3CCC4=CC(=O)[C@H](C)CC4(C)[C@@]3(F)C(O)CC12C (some centres not stated) | 2.4 | 
CCC(=O)O[C@]1(C(=O)CO)[C@@H](C)C[C@H]2[C@@H]3CCC4=CC(=O)C=C[C@]4(C)[C@@]3(Cl)[C@@H](O)C[C@@]21C [BECLOMETHASONE 17-MONOPROPIONATE] |  | 360
C[C@H]1C[C@@H]2[C@H]([C@@H](O)C[C@@]3(C)[C@H]2CC[C@]3(O)C(=O)CO)[C@@]2(C)C=CC(=O)C=C12 (stereo in doubt; 68) [METHYLPREDNISOLONE] | 200 | 
CC(=O)OCC(=O)[C@@]1(O)CCC2C3C[C@H](Cl)C4=CC(=O)CCC4(C)C3C(=O)CC21C (some centres not stated) | 1 | 
CCCCC(=O)O[C@]1(C(=O)CCl)[C@@H](C)C[C@H]2[C@@H]3CCC4=CC(=O)C=C[C@]4(C)[C@@]3(F)[C@@H](O)C[C@@]21C |  | 91
C[C@]12CCC(=O)C=C1CC[C@@H]1[C@@H]2C(=O)C[C@@]2(C)[C@H]1CC[C@]2(O)C(=O)CO [CORTISONE] | 0.4 | 
CC(=O)OCC(=O)[C@@]1(OC(C)=O)CCC2C3C[C@H](F)C4=CC(=O)C=CC4(C)[C@@]3(F)C(O)CC21C (some centres not stated) |  | 360
